Test results: patent publication US20230406803A1, “TROPOLONE DERIVATIVES AND TAUTOMERS THEREOF FOR IRON REGULATION IN ANIMALS” (Kinesid Therapeutics, Inc, priority 2020, published 2023)

How the values were obtained:
[1] = tested on: DMT1-deficient Caco-2 cells; experiment: shDMT1-Caco2 55Fe transport assay; format: cell-based; conditions: Caco-2
Description: Assay 2: shDMT1-Caco2 ^55Fe Transport Assay to Assess Ligand Ability in Transporting Fe (III)
Cells: DMT1-deficient Caco-2 cells (alias: “shDMT1,” or “4A” cells) were from Grillo et al. Science, 2017, and were cryopreserved in liquid nitrogen prior to use.
Reagents and supplies: ^55FeCl3 was obtained from PerkinElmer (Boston, MA). Iron(III) chloride (FeCl3) hexahydrate was obtained from Sigma. Dulbecco's Modified Eagle Medium (DMEM), fetal bovine serum (FBS), L-glutamine, MEM nonessential amino acids, penicillin-streptomycin, G418, formic acid, methanol, high-purity water, ammonium formate, dimethyl sulfoxide (DMSO) were purchased from Fisher Scientific. Propranolol, atenolol and carbutamide were obtained from Sigma-Aldrich Chemical Company (St Louis, MO). Scintillation cocktail was obtained from Research Product International Co. (Mount Prospect, IL). Stericup filter system (PES membrane, 0.22 um pore size) was purchased from Fisher Scientific. Corning item #3378 24-well transwell insert plates.
Test articles: known compounds hinokitiol and deferiprone were purchased from Sigma. They are tested side by side with the small molecule ligands disclosed in this application. DMSO stocks (10 mM, which is 1,000× of the 10 μM dose level) of hinokitiol or test articles were prepared. A stock solution of 25 mM deferiprone in DMSO was prepared. The DMSO stock solutions were stored at −20° C. or below when not in use.
The growth medium was prepared according to the following table
Apical media (serum free DMEM, 10 mM MES, pH 6.5) was prepared. Apical master mix media was prepared fresh with the addition of 200 nM ^55Fe before each experiment. For the negative control propranolol and atenolol wells, 200 nM of non-radioactive iron was used.
The basolateral media was serum-free DMEM, 10 mM HEPES, 2% bovine serum albumin (BSA), pH 7.4.
For each experiment, cells were seeded into the 24-well transwell plates (0.5 mL of 50,000 cells/mL) with growth media. The basolateral companion plate was loaded with 1 mL of growth media. After 12-24 hr, both the apical and basolateral chamber were replaced with growth media. The apical media was changed 3× per week for 21-28 days, including a media change exactly 48 hr before the assay date.
On the assay day, the TEER values were measured and the average TEER value was obtained. Individual wells with TEER value >35% lower than the average of all wells were excluded. For the qualified wells, the apical layer (twice) and basolaterial (once) chambers were washed with PBS. The basolateral companion plate was then filled with 1 mL of basolateral media. Via addition down the side-wall of the apical well, 300 μL per well of the apical assay master mix, with the indicated dose level of test article, was added. Each dose was tested in triplicate. The plates were incubated (5% CO2 and 90% humidity at 37° C.) for the indicated timepoints. At each indicated timepoint, the basolateral supernatant was gently mixed via pipetting, and 200 μL of the basolateral supernatant was transferred to scintillation vials. To each scintillation counting vial, 5 mL of scintillation cocktail fluid was added. For each scintillation vial, the radioactivity (CPM) was determined with liquid scintillation counter LS6500. The counting time per vial was 5 min.
All raw CPM values are divided by the average value of blank DMSO solution to give a fold of change above the DMSO value. The mean and standard deviation of each compound at each concentration level and at each time point measured was calculated to give the fold change (fc) value. For rank order compounds, the fc value of a ligand at 4 h time point is further divided by the fold change (fc) value of hinokitiol (a positive control compound) at an equimolar concentration to arrive at the FC (normalized fold of change) value. Data reported in Tables 1 and 2 is 4 hr time point FC=fc-ligand @ 3 uM/fc-hino @ 3 μM, and FC hino=1.

[2] = Ligand facilitated Fe(III) efflux from liposomes; format: biochemical; parameters: unit not given here; conditions: efflux rate k at 10 μM ligand concentration; ferrozine absorbance 562 nm, 120 min kinetic read
Description: Assay 1: Ligand Facilitated Fe(III) Efflux from Liposomes
Preparation of POPC (1 palmitoyl-2-oleoyl-sn-glycero-3 phosphocholine): Cholesterol Liposomes
A 1M buffer solution of MES and Tris was prepared by dissolving 121.14 grams of Tris base and 213.25 grams of MES hydrate in 500 mL of MilliQ water and adjusted to pH7.0 using an […] HCl solution before bringing the total volume of the solution to 1 L. A 500 mM solution of FeCl3 was prepared by dissolving 0.811 grams of anhydrous FeCl3 in 10 mL of a 0.1M H2SO4 aqueous solution. Inside buffer is prepared in a 50 mL falcon tube, which was added with 25 mL of MilliQ water, 1.61 g of sodium citrate, 1.5 mL of the above FeCl3 solution, and 2.5 mL of the 1M MES/Tris HCl buffer (pH=7.0), and finally additional MilliQ H2O to bring to a 50 mL final volume.
Lipid solution is prepared by dissolving 206.9 mg of POPC (1-palmitoyl-2-oleoyl-sn-glycero-3-phosphocholine) and 8.6 mg of cholesterol in 10 mL of ethanol.
The lipids solution and the inside buffer solution are independently loaded into 10 mL luer lock syringes for loading into a virgin cartridge on a Precision Nanosystems NanoAssembler to prepare unilamaller liposomes with the following parameters: 7.5 mL total volume, 1.5:1 mixing ratio of inside buffer:lipids solution, 8 mL/min flow rate, ambient temperature, 0.35 mL start waste, and 0.05 mL of end waste. 7.5 mL of liposomes is harvested for purification on a 6-inch long, 1-inch diameter Sephadex G-50 column wetted in 600 mM sodium ascorbate and 50 mM MES/Tris HCl pH 7.0 buffer. This buffer also serves as the column running buffer. The crude liposome solution is carefully loaded with minimal volume of running buffer above the top of the Sphadex, allowed to enter the matrix, and the column is run with the continued addition of running buffer. The eluting liposomes, observed as a milky and turbid solution, are collected until free iron begins to elute (observed as a deep purple color) and the fractions are pooled for phosphorus quantitation.
Determination of Phosphorus Content:
Phosphorus content of eluted liposomes was determined by the process outlined below. 10 μL of liposome elution and a running buffer blank are added to a 5 mL glass vial containing 450 μL of a 8.9 M aqueous H2SO4 solution, the mixture is heated to 225° C. for 25 minutes in an aluminum heat block to hydrolyze POPC and cooled for 5 minutes. 200 μL of a 30% hydrogen peroxide aqueous solution is added to each vial and heated to 225° C. for 25 minutes. After cooling, the phosphorus content was determined using an Abcam Phosphate Assay kit, with buffer subtracted phosphorus levels determined against a standard curve of phosphate included in the kit. Liposomes were diluted to 1 mM phosphate in Running Buffer for use in assays after accounting for dilutions made during phospholipid digestion.
Determination of the Iron Transporting Rate Constant of the Ligands:
Determination of the rate at which a small molecule ligand liberates (transport) Ferric iron from liposomes is performed in clear bottom black 384-well plates on a Spectramax i3x set to read the absorbance at 562 nm in the kinetic mode every 60 seconds for 120 minutes. 1 μL of serially diluted DMSO stock solution of a small molecule ligand is added to wells in triplicate to give the final concentrations of 40, 20, 10, 5, 2.5, and 1.25 uM of the ligand at 80 μL final volume, followed by addition of 1 μL of 100 mM Ferrozine in water to give a final concentration of 1 mM ferrozine. 78 μL of liposomes diluted to 1 mM phosphorus in running buffer is added to wells as quickly as possible (using a digital repeater multichannel pipette) with the kinetic read initiated as rapidly as possible after addition of liposomes to all wells. Typically, eight compounds at six concentrations are tested in triplicate simultaneously. […]

SMILES	Caco2 shDMT1 transport FC @ 3 μM, 4 h [1]	Liposome Fe transport kefflux at 10 μM [2]
O=c1ccccc(OC2COC2)c1O	0.01-0.5	0.1-5
CC(C)c1ccc(F)c(=O)c(O)c1F	0.01-0.5	7.5-10
Cc1cccc(Cl)c(=O)c1O	0.01-0.5	5-7.5
CCc1ccc(O)c(=O)c(F)c1	0.01-0.5	0.1-5
CCc1cc(F)ccc(=O)c1O	1-5	7.5-10
CCc1cccc(Cl)c(=O)c1O	0.01-0.5	7.5-10
O=c1c(O)ccc(OC2CCC2)cc1F	0.01-0.5	10-25
O=c1ccccc(OC2CC(F)(F)C2)c1O	1-5	7.5-10
O=c1cccc(OC2CC2)cc1O	1-5	5-7.5
O=c1cccc(O[C@@H]2CCOC2)cc1O (stereo in doubt)	0.01-0.5	0.1-5
Cc1c(O)c(=O)ccn1C [deferiprone, reference compound]	0.02-0.03	0
CC(C)c1ccc(F)c(=O)c(O)c1 [drawing 176]	0.01-0.5	10-25
CC(C)c1cccc(=O)c(O)c1F [drawing 177]	0.01-0.5	10-25
CC(C)c1cccc(F)c(=O)c1O [drawing 179]	0.01-0.5	10-25
O=c1cccc(C2CC3CCC(C2)O3)cc1O (stereo not shown) [drawing 181]	0.01-0.5	7.5-10
O=c1ccccc(C2CCOCC2)c1O [drawing 183]	1-5	0.1-5
O=c1ccc(OC2COC2)ccc1O [drawing 187]	0.01-0.5	5-7.5
CCc1cccc(C)c(=O)c1O [drawing 202]	0.01-0.5	5-7.5
Cc1cc(C(C)C)ccc(O)c1=O [drawing 203]	1-5	10-25
Cc1cccc(C(C)C)c(O)c1=O [drawing 205]	0.5-1	5-7.5
Cc1cccc(F)c(=O)c1O [drawing 207]	0.01-0.5	10-25
O=c1c(O)cc(C2CC2)ccc1F [drawing 209]	0.01-0.5	7.5-10
O=c1c(F)cccc(C2CCOCC2)c1O [drawing 211]	0.01-0.5	5-7.5
O=c1ccccc(OC2CCC2)c1O [drawing 233]	0.01-0.5	7.5-10
O=c1ccccc(OC2CC3(CC3)C2)c1O [drawing 259]	1-5	10-25
O=c1ccccc(OCC2CC2)c1O [drawing 260]	1-5	10-25
